Bridge positions count the residues as written; N and C are the ends. Square brackets hold non-standard residues; d marks the D form. Peptide text beside a SMILES is read from it. R8 = C=CCCCCCC[C@@](C)(N)C(=O)O; S5 = C=CCCC[C@](C)(N)C(=O)O; Pra = C#CC[C@H](N)C(=O)O
What was measured:
[1] = biological target: T1, APC/C (Homo sapiens, UniProt Q9NYG5); assay: In vitro APC/C ubiquitylation assay with APC/C immunoprecipitated from metaphase HeLa cells; type: biochemical; design: immunoprecipitated APC/C from metaphase-synchronized HeLa cells; endogenous in cells; host or cells: metaphase-synchronized HeLa cells (APC/C); the E2 is recombinant; details: 100 μM, end-point assay, UBE2C as E2, dye-labeled securin, in-gel scanning, n = 5
Excerpt: To assess prevention of RING activation by our E2 mimetics, and thus validate our design strategy, we employed in vitro APC/C ubiquitylation assays containing immunoprecipitated APC/C from metaphase-synchronized HeLa cells, recombinant UBA1 (E1), UBE2C (E2), ubiquitin, and dye-labeled metaphase APC/C substrate securin (Figure A). […] To immobilize BH3 to beads, we used our models to introduce propargylglycine (Pra) (Pra-BH3) at the N-term and thus enable side chain conjugation with azide agarose beads by click chemistry (Figure E). […] Pra-BH3 also precipitated other RING-type E3 including BRCA1, BMI1, MDM2, c-CBL and c-IAP1 (Figure F). However, except for c-CBL and MDM2, those interactions were weaker, as judged by the degree of enrichment over the input of the assay (Figure G).
APC/C-dependent ubiquitination reactions were performed at 30 °C in 30 mM HEPES pH 7.4, 175 mM NaCl, 8 mM MgCl2, 0.05% Tween-20, 1 mM DTT and 5% glycerol and contained 20 nM recombinant APC/C, 340 nM CDC20, 46 nM GST-UBA1, 340 nM UBE2C (alternatively 400 nM UBE2D, 280 nM UBE2S), 21 μM His6-ubiquitin or if it is indicated 21 μM methylated-ubiquitin (BostonBiochem), 2.6 mM ATP, 10 mM phosphocreatine, and 11 μM creatine kinase. […] Detection of fluorescently labeled substrates was done by a quantitative near-infrared scanning system, Odyssey.

[2] = biological target: T2, BMI1 (Homo sapiens, UniProt P35226); assay: Pull-down binding assay from HeLa cell extract, Western blot; details: peptide clicked to azide agarose beads, n = 3
T2 construct: endogenous in cells; host or cells: HeLa
T2 sequence (P35226 1-326): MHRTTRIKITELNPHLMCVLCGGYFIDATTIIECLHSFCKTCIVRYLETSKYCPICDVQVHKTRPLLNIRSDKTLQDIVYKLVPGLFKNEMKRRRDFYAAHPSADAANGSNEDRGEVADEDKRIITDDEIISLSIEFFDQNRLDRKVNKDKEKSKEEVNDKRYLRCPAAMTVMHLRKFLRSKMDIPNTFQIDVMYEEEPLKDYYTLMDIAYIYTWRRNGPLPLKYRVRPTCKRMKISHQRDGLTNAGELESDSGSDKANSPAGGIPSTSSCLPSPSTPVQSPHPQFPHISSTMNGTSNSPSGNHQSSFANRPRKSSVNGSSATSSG
Experimental: (§1) For protein transfer, a 0.45 μm Immobilon-FL PVDF membrane (Merck Millipore) was used. The membrane was activated in ethanol and then transferred to Blotting buffer (50 mM SDS-MOPS, 50 mM Tris base, 0.1% SDS, 1 mM EDTA, and 20% EtOH). The proteins were transferred using a wet transfer for 1.5 h at 400 mA. Subsequently, the membrane was incubated with the blocking solution, 10% milk in PBS-T (0.02% Tween-20 in PBS), for 1 h at room temperature. To detect proteins of interest, the membrane was incubated with primary antibodies overnight at 4° C, followed by 3 washes for 10 min with PBS-T and incubation with IRDye-labeled secondary antibodies for 1 h. Prior to detection, the membrane was washed twice with PBS-T for 10 min and once with PBS for 10 min. The detection was done using the quantitative near-infrared scanning system Odyssey (LI-COR Biosciences).
(§2) HeLa cell pellet was resuspended in the extraction buffer (30 mM HEPES pH 7.5, 175 mM NaCl, 2.5 mM MgCl2, 0.25% NP40, 10% glycerol, 1 mM DTT supplied with complete protease inhibitor cocktail (Roche), PhosSTOP phosphatase inhibitors (Roche), 1 mM PMSF, 10 μM MG132) and incubated for 20 min on ice, followed by centrifugation to clear the lysate for 15 min at 4 °C 16,100 g. In the meantime, inhibitor molecules containing the propargyl-Gly-OH (Pra) chemical group were covalently attached to the azide agarose resin (Jena Bioscience) by Cu(I)-catalyzed azide–alkyne cycloaddition reaction. Specifically, the inhibitor molecules were mixed with azide agarose resin in a ratio of 0.125 μmol inhibitor/20 μL agarose resin. The reaction was catalyzed by 0.1 mM CuSO4, 0.5 mM THPTA (Sigma-Aldrich), and 5 mM Sodium ascorbate and was performed on the rotating wheel for 30 min at room temperature in a volume of 1 mL. Subsequently, the resin was washed five times with extraction buffer. The inhibitor-agarose resin was added to 2 mg of HeLa cell extract and incubated at 4 °C for 2 h. Afterward, the resin was washed four times with extraction buffer. Pull-down proteins were eluted by incubation with prewarmed 1x LDS sample buffer for 10 min at room temperature, followed by taking supernatant supplemented with 100 mM DTT and boiling for 10 min. Afterward, SDS PAGE and Western blot analyses were performed to detect the indicated proteins.

[3] = biological target: T3, MDM2 (Homo sapiens, UniProt Q00987); assay: as above; details: peptide clicked to azide agarose beads, n = 3
T3 construct: endogenous in cells; host or cells: HeLa
T3 sequence (Q00987 whole entry): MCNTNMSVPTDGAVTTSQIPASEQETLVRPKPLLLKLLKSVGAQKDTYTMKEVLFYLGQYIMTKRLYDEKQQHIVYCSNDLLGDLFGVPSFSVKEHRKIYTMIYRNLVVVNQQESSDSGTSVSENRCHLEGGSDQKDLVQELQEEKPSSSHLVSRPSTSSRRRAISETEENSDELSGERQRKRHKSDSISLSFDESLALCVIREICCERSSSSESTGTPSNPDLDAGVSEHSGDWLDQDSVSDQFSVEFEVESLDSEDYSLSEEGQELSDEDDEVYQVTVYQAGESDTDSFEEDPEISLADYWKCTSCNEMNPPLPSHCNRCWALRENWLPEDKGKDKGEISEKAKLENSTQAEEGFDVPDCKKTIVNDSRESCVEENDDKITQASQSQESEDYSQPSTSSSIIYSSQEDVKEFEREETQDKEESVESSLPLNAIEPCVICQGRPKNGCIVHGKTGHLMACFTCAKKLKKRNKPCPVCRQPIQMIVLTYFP
Experimental: as §1, §2

[4] = biological target: T4, BRCA1 (Homo sapiens, UniProt P38398); assay: as above; details: peptide clicked to azide agarose beads, n = 3
T4 construct: endogenous in cells; host or cells: HeLa
T4 sequence (P38398 whole entry): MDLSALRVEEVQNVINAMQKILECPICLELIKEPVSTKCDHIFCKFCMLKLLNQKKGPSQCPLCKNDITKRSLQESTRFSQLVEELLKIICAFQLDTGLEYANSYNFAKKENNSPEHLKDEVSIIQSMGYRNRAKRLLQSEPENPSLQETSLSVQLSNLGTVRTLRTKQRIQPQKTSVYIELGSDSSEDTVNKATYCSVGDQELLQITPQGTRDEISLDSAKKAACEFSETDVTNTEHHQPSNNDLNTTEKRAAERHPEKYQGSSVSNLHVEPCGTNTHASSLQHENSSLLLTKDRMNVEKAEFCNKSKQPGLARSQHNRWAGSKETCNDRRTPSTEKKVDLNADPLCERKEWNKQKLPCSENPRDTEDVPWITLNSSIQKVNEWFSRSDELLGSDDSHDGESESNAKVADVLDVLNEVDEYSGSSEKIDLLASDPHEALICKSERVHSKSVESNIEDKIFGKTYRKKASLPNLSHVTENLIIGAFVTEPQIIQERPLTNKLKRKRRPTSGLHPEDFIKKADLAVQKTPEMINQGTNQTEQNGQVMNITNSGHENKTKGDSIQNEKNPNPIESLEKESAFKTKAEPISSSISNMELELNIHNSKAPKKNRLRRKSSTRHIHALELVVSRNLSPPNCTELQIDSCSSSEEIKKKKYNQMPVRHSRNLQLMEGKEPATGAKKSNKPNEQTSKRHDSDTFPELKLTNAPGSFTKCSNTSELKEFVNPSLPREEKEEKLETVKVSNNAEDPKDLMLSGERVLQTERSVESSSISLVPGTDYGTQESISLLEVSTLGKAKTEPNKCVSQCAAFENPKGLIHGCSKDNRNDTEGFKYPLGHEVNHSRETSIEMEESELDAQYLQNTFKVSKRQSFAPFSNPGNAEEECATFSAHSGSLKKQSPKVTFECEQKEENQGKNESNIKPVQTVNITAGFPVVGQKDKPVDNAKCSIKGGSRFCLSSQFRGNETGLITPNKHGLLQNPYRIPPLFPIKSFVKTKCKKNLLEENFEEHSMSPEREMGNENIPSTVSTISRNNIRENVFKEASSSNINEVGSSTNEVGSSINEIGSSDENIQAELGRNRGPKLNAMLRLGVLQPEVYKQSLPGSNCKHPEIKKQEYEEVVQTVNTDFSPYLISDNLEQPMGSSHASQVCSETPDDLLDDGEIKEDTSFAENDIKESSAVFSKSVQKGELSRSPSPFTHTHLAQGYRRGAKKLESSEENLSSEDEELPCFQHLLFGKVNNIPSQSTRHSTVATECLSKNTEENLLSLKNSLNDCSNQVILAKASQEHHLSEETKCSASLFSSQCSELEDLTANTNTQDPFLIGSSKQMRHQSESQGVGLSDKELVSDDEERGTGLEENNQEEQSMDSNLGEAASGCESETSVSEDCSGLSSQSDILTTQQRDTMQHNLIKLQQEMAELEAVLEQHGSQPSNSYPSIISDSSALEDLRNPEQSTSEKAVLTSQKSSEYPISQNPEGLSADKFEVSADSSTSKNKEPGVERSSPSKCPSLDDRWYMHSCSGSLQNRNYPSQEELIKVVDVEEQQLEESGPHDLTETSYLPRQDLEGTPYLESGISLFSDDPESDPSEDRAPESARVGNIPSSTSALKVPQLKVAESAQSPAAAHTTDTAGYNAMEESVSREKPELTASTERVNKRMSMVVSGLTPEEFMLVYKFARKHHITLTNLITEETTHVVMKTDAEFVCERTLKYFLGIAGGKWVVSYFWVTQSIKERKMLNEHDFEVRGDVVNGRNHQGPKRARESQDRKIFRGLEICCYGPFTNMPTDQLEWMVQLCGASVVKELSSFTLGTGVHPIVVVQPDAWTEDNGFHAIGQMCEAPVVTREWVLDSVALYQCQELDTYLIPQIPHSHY
Experimental: as §1, §2

[5] = biological target: T5, c-IAP1 (Homo sapiens, UniProt Q13490); assay: as above; details: peptide clicked to azide agarose beads, n = 3
T5 construct: endogenous in cells; host or cells: HeLa
T5 sequence (Q13490 whole entry): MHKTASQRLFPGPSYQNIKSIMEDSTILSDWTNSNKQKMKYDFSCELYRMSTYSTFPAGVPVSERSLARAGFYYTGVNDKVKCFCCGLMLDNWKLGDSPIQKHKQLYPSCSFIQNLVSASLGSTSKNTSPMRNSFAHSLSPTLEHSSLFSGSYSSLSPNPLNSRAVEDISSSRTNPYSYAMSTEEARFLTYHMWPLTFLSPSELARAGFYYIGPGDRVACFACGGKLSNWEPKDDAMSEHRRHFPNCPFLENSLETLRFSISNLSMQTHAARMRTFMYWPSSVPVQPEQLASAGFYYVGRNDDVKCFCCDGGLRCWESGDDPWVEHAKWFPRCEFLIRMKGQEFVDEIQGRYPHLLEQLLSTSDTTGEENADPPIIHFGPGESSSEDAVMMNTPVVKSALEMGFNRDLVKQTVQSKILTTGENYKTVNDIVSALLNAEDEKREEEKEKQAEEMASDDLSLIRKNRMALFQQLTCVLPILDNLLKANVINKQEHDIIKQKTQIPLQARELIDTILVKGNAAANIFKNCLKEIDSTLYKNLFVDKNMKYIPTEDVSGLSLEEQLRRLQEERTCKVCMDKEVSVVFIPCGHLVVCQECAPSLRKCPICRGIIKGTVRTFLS
Experimental: as §1, §2

[6] = biological target: T6, c-CBL (Homo sapiens, UniProt P22681); assay: as above; details: peptide clicked to azide agarose beads, n = 3
T6 construct: endogenous in cells; host or cells: HeLa
Experimental: as §1, §2

[7] = biological target: T7, APC11 (Homo sapiens, UniProt Q9NYG5); assay: as above; details: peptide clicked to azide agarose beads, 2 mg HeLa extract, 4 °C, 2 h, n = 3
T7 construct: endogenous in cells; host or cells: HeLa
T7 sequence (Q9NYG5 whole entry): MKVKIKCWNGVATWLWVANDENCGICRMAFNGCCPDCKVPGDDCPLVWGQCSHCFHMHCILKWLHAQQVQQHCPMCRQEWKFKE
Experimental: as §1, §2

[8] = biological target: T8, RBX1 (Homo sapiens, UniProt P62877); assay: as above; details: n = 3; for binding to RBX1, Pra-H1 versus Pra-BH3: pull-down with metaphase extracts
T8 construct: endogenous in cells; host or cells: HeLa
T8 sequence (P62877 whole entry): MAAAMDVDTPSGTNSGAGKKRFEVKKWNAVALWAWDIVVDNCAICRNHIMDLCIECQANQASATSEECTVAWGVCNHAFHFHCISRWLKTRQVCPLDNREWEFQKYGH
Experimental: as §1, §2

[9] = biological target: T9, UBE2S (Homo sapiens, UniProt Q16763); assay: In vitro E2 activity assay (autoubiquitination); type: biochemical; details: 100 μM, 45 min, 30 °C, Blue Silver staining, n = 3
T9 construct: gift of Sonja Lorenz (MPI, Göttingen, Germany)
T9 sequence (Q16763 1-222): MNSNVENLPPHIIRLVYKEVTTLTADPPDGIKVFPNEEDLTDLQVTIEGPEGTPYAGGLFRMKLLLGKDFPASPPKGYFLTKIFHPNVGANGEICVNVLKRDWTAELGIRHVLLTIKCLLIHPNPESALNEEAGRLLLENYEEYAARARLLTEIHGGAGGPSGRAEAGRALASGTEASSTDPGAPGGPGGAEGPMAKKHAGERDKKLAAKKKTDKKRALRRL
Experimental: UBE2C and UBE2S activity assays were performed at 30 °C in 50 mM HEPES pH 7.4, 100 mM KCl, 9 mM MgCl2, and contained 0.6 μM UBA1 (E1), 8 μM UBE2C or UBE2S, 60 μM His6-ubiquitin, and 5.6 mM ATP. It should be noted that wild-type UBE2C and UBE2S were used. The reaction was done in a volume of 15 μL, and it was quenched after 45 min with the LDS sample buffer supplemented with 100 mM DTT and subjected to SDS-PAGE followed by Blue Silver staining. Imaging of Blue Silver-stained gels was done by a quantitative near-infrared scanning system, Odyssey. It should be noted that reactions without ATP were first preincubated for 5 min at room temperature.

[10] = biological target: T1, APC/C; assay: In vitro APC/C ubiquitination assay, fully reconstituted with recombinant APC/C, substrate securin; type: biochemical; design: made in house; host or cells: SF9 insect cells, co-infected with two baculoviruses (bacmids a gift from David Barford); details: 25 μM, lowest concentration of titration 25-100 μM, n = 3
Experimental: Next, we tested the APC/C inhibitory proficiency of H1-6 in fully reconstituted activity assays with recombinant APC/C in comparison to BH3 and the commercially available APC/C inhibitor TAME. To account for mechanistic differences in APC/C inhibition between TAME (inhibits CDC20 binding) and ^i APC11 (inhibits E2 binding), all inhibitors, E2s and CDC20 were added simultaneously to APC/C. […] We observed no difference for UBE2C and only a small (∼10%) decrease in UBE2S autoubiquitylation compared to control reactions (Figure S16B–D).
To quantify the inhibitory effectiveness of H6, its IC50 was determined. To this end, we performed in vitro APC/C ubiquitination assays in the presence of H6 titrated from 0.01 to 100 μM (Figure S17B). […]
APC/C-dependent ubiquitination reactions were performed at 30 °C in 30 mM HEPES pH 7.4, 175 mM NaCl, 8 mM MgCl2, 0.05% Tween-20, 1 mM DTT and 5% glycerol and contained 20 nM recombinant APC/C, 340 nM CDC20, 46 nM GST-UBA1, 340 nM UBE2C (alternatively 400 nM UBE2D, 280 nM UBE2S), 21 μM His6-ubiquitin or if it is indicated 21 μM methylated-ubiquitin (BostonBiochem), 2.6 mM ATP, 10 mM phosphocreatine, and 11 μM creatine kinase. […] Detection of fluorescently labeled substrates was done by a quantitative near-infrared scanning system, Odyssey. […]

Compound: C[C@@H](O)[C@H](NC(=O)[C@H](CCCNC(=N)N)NC(=O)[C@@H]1CSSC[C@H](NC(=O)[C@H](CCCNC(=N)N)NC(=O)CN)C(=O)N[C@@H](Cc2c[nH]cn2)C(=O)N[C@@H](Cc2c[nH]c3ccccc23)C(=O)NCC(=O)N2CCC[C@H]2C(=O)N[C@@H](CCC(=O)O)C(=O)N[C@@H]([C@@H](C)O)C(=O)N[C@@H](Cc2ccccc2)C(=O)N[C@@H](Cc2c[nH]c3ccccc23)C(=O)N1)C(=O)O [BH4] (H-GRCHWGPETFWCRT-OH; disulfide 3-12)
- securin ubiquitylation compared to control reactions [1]: no such effect

Compound: Ac-[Pra]RCHWGPRTFWCR-NH2 (disulfide 3-12 (inferred); SMILES C#CC[C@H](NC(C)=O)C(=O)N[C@@H](CCCNC(=N)N)C(=O)N[C@H]1CSSC[C@@H](C(=O)N[C@@H](CCCNC(=N)N)C(N)=O)NC(=O)[C@H](Cc2c[nH]c3ccccc23)NC(=O)[C@H](Cc2ccccc2)NC(=O)[C@H]([C@@H](C)O)NC(=O)[C@H](CCCNC(=N)N)NC(=O)[C@@H]2CCCN2C(=O)CNC(=O)[C@H](Cc2c[nH]c3ccccc23)NC(=O)[C@H](Cc2c[nH]cn2)NC1=O) [Pra-BH3, BH3 with propargylglycine at the N-term for click chemistry]
- precipitation of BMI1 on beads, enrichment over input [2]: weaker
- precipitation of MDM2 on beads [3]: precipitated
- precipitation of BRCA1 on beads, enrichment over input [4]: weaker
- precipitation of c-IAP1 on beads, enrichment over input [5]: weaker
- precipitation of c-CBL on beads [6]: precipitated
- enrichment of APC11 on beads [7]: strong enrichment
- enrichment of RBX1 on beads ([8]; peptide clicked to azide agarose beads, 2 mg HeLa extract, 4 °C, 2 h): not
- binding to RBX1, Pra-H1 versus Pra-BH3 [8]: very weak and unchanged

Compound: C#CC[C@H](NC(=O)[C@@H]1CCCN1C(=O)[C@H](Cc1c[nH]c2ccccc12)NC(=O)[C@H](CCCNC(=N)N)NC(C)=O)C(=O)N[C@@]1(C)CCCC=CCCC[C@@](C)(C(=O)N[C@@H](CCC(N)=O)C(=O)N[C@H](C(=O)N[C@@H](CCCNC(=N)N)C(=O)N[C@@H](CCCNC(=N)N)C(=O)N[C@@H](Cc2c[nH]c3ccccc23)C(N)=O)C(C)C)NC(=O)[C@H](CC(=O)O)NC(=O)[C@H](Cc2c[nH]c3ccccc23)NC(=O)[C@H](CCCCN)NC1=O [Pra-H1] (Ac-RWP[Pra][S5]KWD[S5]QVRRW-NH2; staple 5-9)
- binding to RBX1, Pra-H1 versus Pra-BH3 [8]: very weak and unchanged

Compound: CC[C@H](C)[C@@H]1NC(=O)[C@H](CCC(=O)O)NC(=O)[C@H](CCCCN)NC(=O)[C@H]([C@@H](C)CC)NC(=O)[C@](C)(NC(=O)[C@H](Cc2c[nH]c3ccccc23)NC(=O)[C@H](Cc2c[nH]c3ccccc23)NC(=O)[C@H](CCC(=O)O)NC(C)=O)CCCCCCC=CCCC[C@@](C)(C(=O)N[C@@H](CCCNC(=N)N)C(=O)N[C@@H](CCCNC(=N)N)C(=O)N[C@@H](C)C(N)=O)NC(=O)[C@H](CCCNC(=N)N)NC(=O)[C@H](CCC(N)=O)NC1=O [H6] (Ac-EWW[R8]IKEIQR[S5]RRA-NH2; staple 4-11)
- decrease in UBE2S autoubiquitylation compared to control reactions [9]: ~10%
- reduction of APC/C activity toward securin [10]: more than 80%

— PMC12169662, “De Novo-Designed APC/C Inhibitors Provide a Rationale for Targeting RING-Type E3 Ubiquitin Ligases” (Journal of Medicinal Chemistry, 2025)
